Test results as given in patent EP4818179A1, “PREPARATION FOR AND USE OF PYRIMIDO-THIOPYRANDIONE INHIBITOR FOR KRAS G12C MUTANT PROTEIN” (Ya Therapeutics Inc, priority 2024, dated 2025).
pIC50: −log10 of the molar value.

System: H358 (KRAS G12C mutant) cells
Assay: Tumor cell proliferation inhibition experiment (Cell Titer-Glo luminescent cell viability assay)
Details: Homo sapiens, NCI-H358, 72 h, read-out: NCI-H538 IC50(nm)
Method: H358 (KRAS G12C mutant) cells were digested, centrifuged, and resuspended. Cell density was determined using a Scepter automated cell counter. The cells were diluted to a solution containing 44,000 cells per milliliter. The adjusted cell solution was added to 90 µL per well in a 96-well culture plate. The 96-well plate was placed in a 37°C, 5% CO2 incubator. After culturing the cells for 24 hours, different concentrations of the test compound were added. The cells were then cultured with the compound for 72 hours in the presence of 10% fetal bovine serum. The ATP content was measured using the Cell Titer-Glo luminescent cell viability assay kit (see manufacturer's instructions for details) to assess cell growth inhibition. In short, 30 µL of Cell Titer-Glo reagent was added to each well, and the plate was shaken for 10 minutes to induce cell lysis. The fluorescence signal was detected and recorded using a Fluoroskan Ascent FL (Thermo). The maximum signal value was obtained from cells treated with dimethyl sulfoxide for 72 hours. Minimum signal value was obtained from a single culture medium (zero cell count). Inhibition rate % = (maximum signal value - minimum signal value) / (maximum signal value - minimum signal value × 100%). Data was processed using GraphPadprism 5 software. IC50 values were calculated by fitting an S-shaped dose-response curve.

SMILES	pIC50
C=CC(=O)N1CCN(c2nc(OC[C@@]34CCCN3C[C@H](F)C4)nc3c2CS(=O)(=O)[C@@H](c2nc(N)cc(C)c2C(F)(F)F)C3)C[C@@H]1CC#N [Compound 7B, 2-((2S)-4-((7R)-7-(6-amino-4-methyl-3-(trifluoromethyl)pyridin-2-yl)-2-(((2R,7AS)-2-fluorotetrahydro-1H-pyrrolazin-7a(5H)-yl)methoxy)-6,6-dioxo-7,8-dihydro-5H-thiaran[4,3-d]pyrimidin-4-yl)-1-(acryloyl)pyrazin-2-yl)acetonitrile]	> 8.00
C=C(F)C(=O)N1CCN(c2nc(OC[C@@]34CCCN3C[C@H](F)C4)nc3c2CS(=O)(=O)C(c2nc(N)cc(C)c2C(F)(F)F)C3)C[C@@H]1CC#N (stereo partly drawn) [Compound 8, 2-((2S)-4-(7-(6-amino-4-methyl-3-(trifluoromethyl)pyridin-2-yl)-2-(((2R,7AS)-2-fluorotetrahydro-1H-pyrrolazin-7a(5H)-yl)methoxy)-6,6-dioxo-7,8-dihydro-5H-thiaran[4,3-d]pyrimidin-4-yl)-1-(2-fluoroacryloyl)pyrazin-2-yl)acetonitrile]	> 8.00
C=C(F)C(=O)N1CCN(c2nc(OC[C@@]34CCCN3C[C@H](F)C4)nc3c2CS(=O)(=O)[C@H](c2nc(N)cc(C)c2C(F)(F)F)C3)C[C@@H]1CC#N [Compound 8A, 2-((2S)-4-((7S)-7-(6-amino-4-methyl-3-(trifluoromethyl)pyridin-2-yl)-2-(((2R,7AS)-2-fluorotetrahydro-1H-pyrrolazin-7a(5H)-yl)methoxy)-6,6-dioxo-7,8-dihydro-5H-thiaran[4,3-d]pyrimidin-4-yl)-1-(2-fluoroacryloyl)pyrazin-2-yl)acetonitrile]	> 8.00
C=C(F)C(=O)N1CCN(c2nc(OC[C@@]34CCCN3C[C@H](F)C4)nc3c2CS(=O)(=O)[C@@H](c2nc(N)cc(C)c2C(F)(F)F)C3)C[C@@H]1CC#N [Compound 8B, 2-((2S)-4-((7R)-7-(6-amino-4-methyl-3-(trifluoromethyl)pyridin-2-yl)-2-(((2R,7AS)-2-fluorotetrahydro-1H-pyrrolazin-7a(5H)-yl)methoxy)-6,6-dioxo-7,8-dihydro-5H-thiaran[4,3-d]pyrimidin-4-yl)-1-(2-fluoroacryloyl)pyrazin-2-yl)acetonitrile]	> 8.00

More lines, now with the values ahead:

pIC50	SMILES
> 8.00	C=CC(=O)N1CCN(c2nc(OC[C@@]34CCCN3C[C@H](F)C4)nc3c2CS(=O)(=O)C(c2nc(N)cc(C)c2C(F)(F)F)C3)C[C@@H]1CC#N (stereo partly drawn) [Compound 7, 2-((2S)-4-(7-(6-amino-4-methyl-3-(trifluoromethyl)pyridin-2-yl)-2-(((2R,7AS)-2-fluorotetrahydro-1H-pyrrolazin-7a(5H)-yl)methoxy)-6,6-dioxo-7,8-dihydro-5H-thiaran[4,3-d]pyrimidin-4-yl)-1-(acryloyl)pyrazin-2-yl)acetonitrile]
> 8.00	C=CC(=O)N1CCN(c2nc(OC[C@@]34CCCN3C[C@H](F)C4)nc3c2CS(=O)(=O)[C@H](c2nc(N)cc(C)c2C(F)(F)F)C3)C[C@@H]1CC#N [Compound 7A, 2-((2S)-4-((7S)-7-(6-amino-4-methyl-3-(trifluoromethyl)pyridin-2-yl)-2-(((2R,7AS)-2-fluorotetrahydro-1H-pyrrolazin-7a(5H)-yl)methoxy)-6,6-dioxo-7,8-dihydro-5H-thiaran[4,3-d]pyrimidin-4-yl)-1-(acryloyl)pyrazin-2-yl)acetonitrile]
